# Patent US20240254119A1 (THIRD HARMONIC BIO, INC., priority 2022, published 2024)
# Experiment: Three time point assay for plasma, brain and testes distribution after oral dosing
# Type: in vivo, rat
# Conditions: rat, oral dosing, time point 2 h
# Description: Exemplary compounds were tested for distribution in plasma, brain and testes tissue following oral dosing of the compounds in rats. Procedures and results are described below.
# Male SD Rats were group-housed (up to four animals/sex/cage) in polysulfone cages with certified aspen wood bedding during acclimation and study period.
# Certified rodent diet and water was provided to all animals ad libitum, unless fasting for study procedures.
# Appropriate amount of test article was accurately weighed and mixed with an appropriate volume of vehicle to get a clear solution or a uniform suspension; vortexing or sonication in water bath may also be need. Animals were dosed within four hours after the formulation is prepared.
# For PO dosing, the dose formulation was administered via oral gavage following facility SOPs. The dose volume was determined by the animals' body weight collected on the morning of dosing day. The dose was 10 mg/kg.
# Each blood collection (about 1 mL per time point at one or more of 0.5 h, 2 h, 3 h, 5.3 h, and 7 h) was performed from jugular vein or other suitable site of each animal into pre-chilled commercial EDTA-K2 tubes and placed on wet ice until centrifugation.
# Blood samples were processed for plasma by centrifugation at approximately 4° C., 3,200 g for 10 min. Plasma was collected respectively and transferred into pre-labeled 96 well plate or polypropylene tubes, quick frozen over dry ice and kept at −60° C. or lower until LC-MS/MS analysis.
# Rat brain was perfused with PBS to remove blood before harvest.
# After perfusion, brain and testis were homogenized using homogenizing buffer (15 mM PBS (pH7.4):MeOH=2:1) at the ratio of 1:9 (1 g tissue with 9 mL buffer, the dilution ratio is 10). The brain homogenate was kept at −60° C. or lower until LC-MS/MS analysis. General sample processing procedure (brain homogenate & testis homogenate) using 96-well plate: • 1). An aliquot of 40 μL unknown sample, calibration standard, quality control and dilution quality control (if have), single blank, and double blank sample was added to the 96-well plate respectively; • 2). Each sample (except the double blank) was quenched with 400 μL of IS1 respectively (double blank sample was quenched with 400 μL of I), and then the mixture was vortex-mixed for 10 min at 800 rpm and centrifuged for 15 min at 3220×g, 4° C.; • 3). An aliquot of 50 μL supernatant was transferred to another clean 96-well plate and centrifuged for 5 min at 3220×g, 4° C., then the supernatant was directly injected for LC-MS/MS analysis.
# • 1. A LC-MS/MS method for the quantitative determination of test compound in biological matrix was developed under Non-GLP compliance. • 2. A calibration curve with at least 6 non-zero calibration standards was applied for the method including LLOQ. • 3. A set of QCs consisting of low, middle, and high concentrations were applied for the method. • 4. N in 1 cassette LC-MS/MS method was developed for samples coming from different studies and the interference among all cassette analytes was evaluated during the method development. • 5. Cassette administration assay was performed if the mass difference (Δmass) among different analytes was more than 4 Da. In this case, interference evaluation was not necessary.
# • 1. If sample number within a batch was ≤12, at least one set of standard curve separated with two parts through begin and end of the sequence, was included in the run, and QCs were not required. The recommended injection order was C8, C6, C4, C2, study samples, C7, C5, C3, C1. • 2. If sample number within a batch was >12, one standard curve and two sets of QCs with low, middle and high concentrations were applied for bioanalysis. Meanwhile, QCs number should be more than 5% of study sample number. • 3. Samples with the same types of matrix in different studies were quantified in one analysis run by using the developed N in 1 cassette LC-MS/MS method. • 4. […]
SMILES,Brain concentration,Kp brain/plasma,Kp testes/plasma,Plasma concentration,Testes concentration
Cc1cc(C)cc(Nc2ccc3ncc(C(=O)Nc4cc(-c5noc([C@H]6C[C@@H]6F)n5)ccc4C)n3c2)c1 [Compound I-299],101 ng/g,0.47,0.92,216 ng/mL,198 ng/g
COC(=O)N1CC(c2nc(-c3ccc(Cl)c(NC(=O)c4cnc5ccccn45)c3)no2)C1 [Compound I-339],603 ng/g,0.50,0.79,1200 ng/mL,947 ng/g
Cc1ccc(-c2noc([C@H]3CC(F)(F)CN3)n2)cc1NC(=O)c1cnc2ccccn12 [Compound I-359],52.7 ng/g,0.02,0.12,2950 ng/mL,345 ng/g
Cc1nc(-c2ccc(C)c(NC(=O)c3cnc4ccccn34)c2)no1 [Compound I-360],3420 ng/g,0.94,0.81,3650 ng/mL,2960 ng/g
Cc1ccc(-c2noc([C@H]3C[C@@H]3F)n2)cc1NC(=O)c1cnc2ccc(C#N)cn12 [Compound I-384],21.4 ng/g,0.53,1.49,40.6 ng/mL,60.7 ng/g

# The next lines start with the values.
Brain concentration,Kp brain/plasma,Kp testes/plasma,Plasma concentration,Testes concentration,SMILES
82.4 ng/g,0.21,1.19,389 ng/mL,464 ng/g,Cc1ccc(-c2noc(C3(N)CC4(CC(F)(F)C4)C3)n2)cc1NC(=O)c1cnc2ccccn12 [Compound I-307]
0 ng/g,,,16.7 ng/mL,0 ng/g,Cc1ccc(-c2noc(CC(=O)O)n2)cc1NC(=O)c1cnc2ccccn12 [Compound I-335]
3660 ng/g,1.64,1.35,2230 ng/mL,3010 ng/g,O=C(Nc1cc(-c2noc([C@H]3C[C@@H]3F)n2)ccc1Br)c1cnc2ccccn12 [Compound I-340]
1940 ng/g,1.19,1.27,1630 ng/mL,2060 ng/g,Cc1ccc(-c2noc(C3CC(OCCF)C3)n2)cc1NC(=O)c1cnc2ccccn12 (stereo not drawn) [Compound I-369]
28.2 ng/g,0.06,0.09,477 ng/mL,44.8 ng/g,Cc1ccc(-c2noc(C3(O)CC(F)(F)C3)n2)cc1NC(=O)c1cnc2ccccn12 [Compound I-380]
